Measurements from PubChem BioAssay (NCI).
“And” between values parts separate entries of the source, which are not always exact repeats. Equal values may be shown once.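 The compound was tested at five concentrations on cells cultured in 96-well plates, with a 48-hour exposure period. GI50: concentration for 50% inhibition of growth. TGI: total growth inhibition.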

Experiments:
Test in all cases: DTP human tumour cell line panel, 48 h
[1] = tested on: IGROV1 ovarian
[2] = tested on: SK-MEL-2 melanoma
[3] = tested on: DU-145 prostate
[4] = tested on: M14 melanoma
[5] = tested on: A498 renal
[6] = tested on: TK-10 renal
[7] = tested on: HT29 colon
[8] = tested on: LOX IMVI melanoma
[9] = tested on: 786-0 renal
[10] = tested on: SK-MEL-5 melanoma

`C[C@@H]1O[C@@H](O[C@H]2C[C@@H](O)[C@]3(CO)C4C(CC[C@]3(O)C2)[C@@]2(O)CC[C@H](C3=CC(=O)OC3)[C@@]2(C)C[C@H]4O)[C@H](O)[C@H](O)[C@H]1O` (some centres undefined) was tested, and the GI50 [1] was 0.0273 µM, the TGI [1] was 0.23 µM and the GI50 [2] was 0.0655 µM. It also gave a TGI [2] of 0.17 µM, a GI50 [3] of 0.0104 µM and a TGI [3] of 0.02 µM. For the same compound, the GI50 [4] was 0.0855 µM, the TGI [4] was 0.166 µM and the GI50 [5] was 0.0387 µM. It also gave a TGI [5] of 0.262 µM, a GI50 [6] of 0.0148 µM and a TGI [6] of 0.0384 µM. For the same compound, the GI50 [7] was 0.0248 µM, the TGI [7] was 0.0836 µM and the GI50 [8] was 0.0233 µM. It also gave a TGI [8] of 0.0882 µM, a GI50 [9] of 0.018 µM and a TGI [9] of 0.0687 µM. For the same compound, the GI50 [10] was 0.016 µM and the TGI [10] was 0.0533 µM.

With `OCC1SC(n2cnc3cncnc32)C(O)C1O` (centres undefined) the GI50 [1] was over 100 µM, the TGI [1] was over 100 µM and the GI50 [2] was over 100 µM. For the same compound, the TGI [2] was over 100 µM, the GI50 [3] was over 100 µM and the TGI [3] was over 100 µM. The GI50 [4] was over 100 µM, the TGI [4] was over 100 µM and the GI50 [5] was over 100 µM. The TGI [5] was over 100 µM, the GI50 [6] was over 100 µM and the TGI [6] was over 100 µM. For the same compound, the GI50 [7] was over 100 µM, the TGI [7] was over 100 µM and the GI50 [8] was over 100 µM. For the same compound, the TGI [8] was over 100 µM, the GI50 [9] was over 100 µM and the TGI [9] was over 100 µM. It also gave a GI50 [10] of over 100 µM and a TGI [10] of over 100 µM.

Compound `Cn1ncc2cc(-c3cnc(N)c(Cl)c3N3CCC4(CCNC4=O)CC3)ccc21` has a GI50 [1] of 14.8 µM, a TGI [1] of over 100 µM and a GI50 [2] of 39.8 µM. The TGI [2] was over 100 µM, the GI50 [3] was 52.1 µM and the TGI [3] was over 100 µM. The GI50 [4] was 41.4 µM, the TGI [4] was over 100 µM and the GI50 [5] was 11.2 µM. The TGI [5] was 32.4 µM, the GI50 [6] was 36.1 µM and the TGI [6] was over 100 µM. It also gave a GI50 [7] of 46.2 µM, a TGI [7] of over 100 µM and a GI50 [8] of 33.1 µM. The TGI [8] was over 100 µM, the GI50 [9] was 11.2 µM and the TGI [9] was over 100 µM. It also gave a GI50 [10] of 11.3 µM and a TGI [10] of 23.8 µM.

`COc1ccc(/C=C2/CN(C(=O)c3ccccc3F)C/C(=C\c3ccc(OC)cc3)C2=O)cc1` gave a GI50 [1] of 3.43 µM, a TGI [1] of 11.3 µM and a GI50 [2] of 15.3 µM. It also gave a TGI [2] of 35.8 µM, a GI50 [3] of 7.47 µM and a TGI [3] of 23.9 µM. For the same compound, the GI50 [4] was 2.73 µM, the TGI [4] was 7.51 µM and the GI50 [5] was 13.5 µM. It also gave a TGI [5] of 27.1 µM, a GI50 [6] of 4.95 µM and a TGI [6] of 17.7 µM. For the same compound, the GI50 [7] was 1.96 µM, the TGI [7] was 3.78 µM and the GI50 [8] was 1.66 µM. The TGI [8] was 3.24 µM, the GI50 [9] was 2.04 µM and the TGI [9] was 4.37 µM. For the same compound, the GI50 [10] was 1.88 µM and the TGI [10] was 4.14 µM.

Compound `O=C(Cn1ccnc1[N+](=O)[O-])N(CCO)CCO` has a GI50 [1] of over 1250 µM, a TGI [1] of over 1250 µM and a GI50 [2] of over 1250 µM. The TGI [2] was 250 µM and > 1250 µM, the TGI [3] was over 250 µM and the TGI [4] was over 250 µM. The GI50 [5] was over 250 µM, the TGI [5] was over 1250 µM and the TGI [6] was over 250 µM. The GI50 [7] was over 1250 µM, the TGI [7] was over 1250 µM and the GI50 [8] was over 250 µM. For the same compound, the TGI [8] was over 1250 µM, the TGI [9] was over 250 µM and the GI50 [10] was over 1250 µM. For the same compound, the TGI [10] was over 1250 µM.

`COc1ccc(-c2nc(-c3nc4ccc(F)cc4[nH]3)cc3c2[nH]c2ccccc23)cc1` was tested, and the GI50 [1] was 2.49 µM, the TGI [1] was 9.7 µM and the GI50 [2] was 2.11 µM. It also gave a TGI [2] of 4.45 µM, a GI50 [3] of 2.99 µM and a TGI [3] of 9.65 µM. It also gave a GI50 [4] of 2.54 µM, a TGI [4] of 7.12 µM and a GI50 [5] of 1.92 µM. It also gave a TGI [5] of 9.7 µM, a GI50 [6] of 2.2 µM and a TGI [6] of 6.74 µM. For the same compound, the GI50 [7] was 2.96 µM, the TGI [7] was 9.01 µM and the GI50 [8] was 2.22 µM. It also gave a TGI [8] of 5.31 µM, a GI50 [9] of 3.33 µM and a TGI [9] of over 100 µM. The GI50 [10] was 1.8 µM and the TGI [10] was 4.61 µM.

In the case of `Cc1c(Cl)ccc2c1NC(=O)C2(O)CC(=O)c1ccc(Cl)cc1Cl` (centres undefined), the TGI [1] is reported as over 50 µM, the TGI [2] is reported as over 50 µM and the TGI [3] is reported as over 50 µM. It also gave a TGI [4] of over 50 µM, a TGI [5] of over 50 µM and a TGI [6] of over 50 µM. For the same compound, the TGI [7] was over 50 µM, the TGI [8] was over 50 µM and the TGI [9] was over 50 µM. The TGI [10] was over 50 µM.

`C[C@]12CC[C@H](O)CC1=CC[C@@H]1[C@@H]2CC[C@]2(C)C(=O)/C(=C/c3cccc(OCCCn4ccnc4)c3)C[C@@H]12` was tested, and the GI50 [1] was 19.4 µM, the TGI [1] was 46.2 µM and the GI50 [2] was 19.9 µM. The TGI [2] was 51 µM, the GI50 [3] was 19.9 µM and the TGI [3] was 38.7 µM. It also gave a GI50 [4] of 18.5 µM, a TGI [4] of 33.2 µM and a GI50 [5] of 20.5 µM. It also gave a TGI [5] of 39.1 µM, a GI50 [6] of 27.9 µM and a TGI [6] of 72 µM. For the same compound, the GI50 [7] was 7.53 µM, the TGI [7] was 27 µM and the GI50 [8] was 23.1 µM. It also gave a TGI [8] of 56.2 µM, a GI50 [9] of 23.2 µM and a TGI [9] of 47.2 µM. The GI50 [10] was 11.1 µM and the TGI [10] was 24.6 µM.

`COc1ccc(C(CC(=O)c2ccccc2)C(C(=O)c2ccccc2)C(c2ccc(OC)cc2)C2C(=O)NC(=O)NC2=O)cc1` (centres undefined) gave a GI50 [1] of 13.2 µM, a TGI [1] of over 100 µM and a GI50 [2] of 38.5 µM. It also gave a TGI [2] of over 100 µM, a GI50 [3] of 19.2 µM and a TGI [3] of 70.5 µM. The GI50 [4] was 19.8 µM, the TGI [4] was 60.8 µM and the GI50 [5] was 11 µM. The TGI [5] was 43.5 µM, the GI50 [6] was 43.2 µM and the TGI [6] was over 100 µM. It also gave a GI50 [8] of 9.38 µM, a TGI [8] of over 100 µM and a GI50 [9] of 27.8 µM. For the same compound, the TGI [9] was over 100 µM, the GI50 [10] was 12.5 µM and the TGI [10] was 31.8 µM.
